Tested on: TK6 cells
Test: Toxicoproteomic analysis of treated TK6 cells (LC-MS/MS, DEPs, enrichment analysis)
Type: cell-based, human
Conditions: specific DEPs 24-h 800 μg/mL
Method: We conducted a proteomic analysis using TK6 cells treated by 4-nitroanthranilic acid that was negative in the short-term treatment and positive in the 24 h treatment. HC Blue No. 2 gave also same test results. […]
Raw MS data were processed by MaxQuant (version 1.6.3.3) supported by the Andromeda search engine for peak detection and quantification. […]
All NaN values of log2 LFQ intensities were converted to − 7, which is approximately equivalent to the minimum value of the LFQ intensities observed in the present study. Then, fold change values were calculated by dividing LFQ intensities (antilogarithms of the log2 LFQ intensities) into sample treated groups by intensities in non-treated (control) groups, respectively (4 and 24 h treated groups). Then, log2 fold changes were calculated. […]

## Nc1cc([N+](=O)[O-])ccc1C(=O)O [4-Nitroanthranilic acid]
Down-regulated
  Count: GO:0005515 ~ protein binding: 34
Up-regulated
  Count: GO:0005515 ~ protein binding: 88
